The values that follow come from ChEMBL document CHEMBL1201862, “PubChem BioAssay data set” (2004).

Each structure is given as a SMILES string. Activity calls are given as the source filed them. A value given as a limit tells only on which side of the number the result lay.

Experiment [1] addresses Kallikrein-7 (Homo sapiens, UniProt P49862). Briefly: Fluorescence Intensity-based biochemical primary high throughput dose response assay to identify activators of kallikrein-7 (K7) zymogen.
The target of experiment [2] is 1-phosphatidylinositol 4,5-bisphosphate phosphodiesterase gamma-1 (Homo sapiens, UniProt P19174). Briefly: Counterscreen for inhibitors of phospholipase C isozymes (PLC-B3): Fluorescence-based biochemical high throughput dose response assay to identify inhibitors of phospholipase C isozymes (PLC-gamma1). (A counterscreen serves to expose hits that act by an unwanted route or on another target.)

The target in experiment [3] is 1-phosphatidylinositol 4,5-bisphosphate phosphodiesterase beta-3 (Homo sapiens, UniProt Q01970). Briefly: Fluorescence-based biochemical high throughput dose response assay to identify inhibitors of phospholipase C isozymes (PLC-B3).
Experiment [4] is described as follows: human group III sPLA2 inhibitors, dose response, biochemical, QFRET, IC50 (AID 743457).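 Note: green fluorescence rise as the enzyme cleaves BODIPY PC-A2 in liposomes; potency for inhibition of the enzyme.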
Experiment [5] concerns the target T1, Rac GTPase-activating protein 1 (Homo sapiens, UniProt Q9H0H5).
T1 sequence (Q9H0H5 whole entry): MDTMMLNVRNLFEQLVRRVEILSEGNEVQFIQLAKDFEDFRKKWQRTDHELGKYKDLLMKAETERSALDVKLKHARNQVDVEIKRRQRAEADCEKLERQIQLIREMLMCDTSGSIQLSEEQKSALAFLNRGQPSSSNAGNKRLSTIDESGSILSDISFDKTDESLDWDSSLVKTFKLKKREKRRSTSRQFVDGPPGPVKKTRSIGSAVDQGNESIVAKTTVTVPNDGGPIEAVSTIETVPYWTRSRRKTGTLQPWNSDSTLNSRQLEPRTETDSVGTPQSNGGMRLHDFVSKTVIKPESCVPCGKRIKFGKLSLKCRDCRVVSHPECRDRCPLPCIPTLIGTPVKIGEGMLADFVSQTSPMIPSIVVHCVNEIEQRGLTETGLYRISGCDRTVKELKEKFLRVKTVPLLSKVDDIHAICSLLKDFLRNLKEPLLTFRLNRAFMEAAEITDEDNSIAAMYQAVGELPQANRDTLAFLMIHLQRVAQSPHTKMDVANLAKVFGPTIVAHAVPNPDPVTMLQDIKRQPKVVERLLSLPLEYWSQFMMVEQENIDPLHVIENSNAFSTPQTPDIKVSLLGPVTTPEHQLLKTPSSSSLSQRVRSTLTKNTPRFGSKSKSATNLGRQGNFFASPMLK
Briefly: MgcRacGAP GTPase-activating activity inhibitors, confirmation, biochemical, ADP Hunter fluorescence, primary and confirmatory (AID 624330). Format: functional.

For experiment [6], the target named is Matrix metalloproteinase-14 (Homo sapiens, UniProt P50281). Briefly: Dose Response confirmation of uHTS hits for a small molecule inhibitors of MT1-MMP activation in a fluorescence assay set 1. Format: functional.
For experiment [7], the target named is Nonstructural protein 1 (Influenza A virus, UniProt Q194T2). Format: functional, Influenza A virus (A/California/07/2009(H1N1)).
For experiment [8], the target named is T2, Histone-lysine N-methyltransferase NSD2 (Homo sapiens, UniProt O96028).
T2 sequence (O96028 whole entry): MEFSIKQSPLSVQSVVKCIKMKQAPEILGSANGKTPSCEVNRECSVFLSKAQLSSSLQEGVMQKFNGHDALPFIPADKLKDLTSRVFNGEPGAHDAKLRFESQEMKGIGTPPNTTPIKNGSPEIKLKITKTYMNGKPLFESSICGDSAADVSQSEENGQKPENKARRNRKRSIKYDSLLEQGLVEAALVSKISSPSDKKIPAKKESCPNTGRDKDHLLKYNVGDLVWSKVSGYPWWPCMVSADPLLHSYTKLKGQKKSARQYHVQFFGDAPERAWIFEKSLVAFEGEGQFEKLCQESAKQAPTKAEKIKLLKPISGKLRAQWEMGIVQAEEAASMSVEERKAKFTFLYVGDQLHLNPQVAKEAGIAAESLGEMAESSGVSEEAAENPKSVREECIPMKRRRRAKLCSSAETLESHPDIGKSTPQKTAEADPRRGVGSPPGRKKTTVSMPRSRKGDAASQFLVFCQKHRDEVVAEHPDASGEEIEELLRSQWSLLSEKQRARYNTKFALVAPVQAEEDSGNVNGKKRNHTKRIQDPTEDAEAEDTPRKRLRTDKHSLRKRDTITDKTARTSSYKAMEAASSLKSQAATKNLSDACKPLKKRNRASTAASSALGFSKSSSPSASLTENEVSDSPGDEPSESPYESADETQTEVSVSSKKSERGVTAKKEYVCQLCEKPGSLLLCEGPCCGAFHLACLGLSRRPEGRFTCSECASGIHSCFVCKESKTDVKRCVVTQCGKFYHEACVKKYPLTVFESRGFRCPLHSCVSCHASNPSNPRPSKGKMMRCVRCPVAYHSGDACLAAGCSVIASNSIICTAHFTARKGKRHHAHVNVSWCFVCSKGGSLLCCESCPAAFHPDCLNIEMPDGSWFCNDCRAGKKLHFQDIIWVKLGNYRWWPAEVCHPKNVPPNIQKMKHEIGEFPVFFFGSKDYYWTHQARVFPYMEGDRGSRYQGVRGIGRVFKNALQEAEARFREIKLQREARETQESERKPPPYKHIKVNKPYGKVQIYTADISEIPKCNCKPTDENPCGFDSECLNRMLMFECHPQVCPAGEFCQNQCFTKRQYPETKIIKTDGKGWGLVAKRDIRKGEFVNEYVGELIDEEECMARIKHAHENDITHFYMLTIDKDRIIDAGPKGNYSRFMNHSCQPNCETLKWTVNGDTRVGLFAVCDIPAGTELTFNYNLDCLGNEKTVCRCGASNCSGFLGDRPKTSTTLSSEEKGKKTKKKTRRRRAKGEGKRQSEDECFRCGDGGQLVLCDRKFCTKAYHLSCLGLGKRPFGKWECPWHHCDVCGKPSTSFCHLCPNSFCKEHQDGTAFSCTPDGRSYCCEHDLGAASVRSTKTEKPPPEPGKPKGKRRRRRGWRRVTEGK
Format: biochemical.

Experiment [9] can be described thus: HeLa cell cytotoxicity, dose response, cytotoxicity control for MgcRacGAP inhibitor project (AID 624300). It is filed as functional.
Experiment [10] deals with T3, Galanin receptor type 3 (Homo sapiens, UniProt O60755).
T3 sequence (O60755 whole entry): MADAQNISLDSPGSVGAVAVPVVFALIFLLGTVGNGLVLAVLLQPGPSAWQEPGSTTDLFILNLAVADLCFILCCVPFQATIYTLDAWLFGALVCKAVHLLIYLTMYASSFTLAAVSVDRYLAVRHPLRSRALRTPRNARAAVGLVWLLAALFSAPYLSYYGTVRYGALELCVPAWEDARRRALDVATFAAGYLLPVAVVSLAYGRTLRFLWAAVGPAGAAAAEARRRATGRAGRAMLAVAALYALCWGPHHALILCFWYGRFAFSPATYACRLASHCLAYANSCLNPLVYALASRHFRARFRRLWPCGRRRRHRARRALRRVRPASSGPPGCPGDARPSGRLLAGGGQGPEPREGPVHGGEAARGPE
Nature of the experiment: Fluorescence-based cell-based primary high throughput dose response assay to identify antagonists of the Galanin Receptor 3 (GalR3). Format: functional.

Experiment [11] is described as follows: cells. It is filed as functional, cell-based. Particulars: HEK-CNG.
For experiment [12], the target named is T4, DNA repair protein RAD52 homolog (Homo sapiens, UniProt P43351).
T4 sequence (P43351 whole entry): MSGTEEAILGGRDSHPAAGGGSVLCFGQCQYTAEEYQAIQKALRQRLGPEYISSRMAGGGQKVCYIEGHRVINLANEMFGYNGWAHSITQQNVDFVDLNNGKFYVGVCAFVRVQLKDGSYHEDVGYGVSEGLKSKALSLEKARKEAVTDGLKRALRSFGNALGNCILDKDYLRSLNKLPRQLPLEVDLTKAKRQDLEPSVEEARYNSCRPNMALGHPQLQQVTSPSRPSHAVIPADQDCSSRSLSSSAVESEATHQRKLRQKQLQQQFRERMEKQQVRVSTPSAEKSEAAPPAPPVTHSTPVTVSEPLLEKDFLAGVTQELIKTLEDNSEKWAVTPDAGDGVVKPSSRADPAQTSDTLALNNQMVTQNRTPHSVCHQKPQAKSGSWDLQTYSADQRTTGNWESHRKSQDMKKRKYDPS
It is filed as functional, biochemical.

Experiment [13] has as its target COUP transcription factor 2 (Homo sapiens, UniProt P24468). Nature of the experiment: Luminescence-based cell-based high throughput dose response assay to identify inhibitors of COUP-TFII (NR2F2). Format: functional.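 Note: HEK293 cells transiently cotransfected with COUP-TFII expression vector and reporter; luciferase reporter luminescence driven by COUP-TFII from the pX2-168 reporter plasmid.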
Experiment [14] is described as follows: control 3'UTR Renilla luciferase suppression, dose response, counter-screen for Shn3 inhibitor project, cell-based, Clone20-Shn3RL, cherry-picked (AID 624133). Format: functional.
A short description of experiment [15]: HepG2 cell cytotoxicity, dose response, cytotoxicity control for Shn3 inhibitor project, CellTiter-Glo, cherry-picked (AID 624134). Format: functional, cell-based. (In general: ATP-based viability assays read luminescence as a measure of living cells.)
The nature of experiment [16]: Shn3 3'UTR reporter inhibitors, dose response, cell-based, Clone20 osteoblasts, firefly luciferase, cherry-picked (AID 624132).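 Note: firefly luciferase luminescence from reporter carrying the Shn3 3'UTR in osteoblasts.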 Format: functional.
Experiment [17] deals with Paired box protein Pax-8 (Homo sapiens, UniProt Q06710). Nature of the experiment: inhibitors of PAX8-driven TPO luciferase reporter, dose response, RMG-I cells, cherry-pick (AID 687027).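 Note: luciferase reporter driven by Pax8 target thyroperoxidase promoter measured by SteadyGlo luminescence.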 It is filed as functional, cell-based.
Experiment [18] in a line: NIH:OVCAR-3 ovarian cancer cell cytotoxicity, dose response, PAX8 inhibitor project, plate reader, dry powder samples (AID 743044). It is filed as functional, cell-based.
Experiment [19] is described as follows: IOSE-T80 ovarian epithelial cell cytotoxicity, dose response, cytotoxicity control for PAX8 inhibitor project, plate reader, dry powder samples (AID 743045). It is filed as functional, cell-based.
The nature of experiment [20]: cytotoxicity in OVCAR8 ovarian cancer cells, dose response, PAX8 project, cell-based, plate reader, dry powder samples (AID 743197). Format: functional. Particulars: OVCAR-8.
Experiment [21] is described as follows: Concentration-dependent survival of SW480 colon cancer line, luminescence detection with CellTiter-Glo, half-maximal inhibitory concentration (AID 1117338). Format: functional.
A short description of experiment [22]: CellTiter-Glo luminescent dose response of DLD-1 viability loss (AID 1117352). It is filed as functional.
Experiment [23] is described as follows: cytotoxicity toward HT-29 cells – cell-based, CellTiter-Glo luminescence, IC50, dose response (AID 1117330). Format: functional.
Experiment [24] is described as follows: cytotoxicity toward HCT116 cells – cell-based, CellTiter-Glo luminescence, IC50, dose response (AID 1117332). Format: functional. Particulars: HCT-116.
A short description of experiment [25]: SNU-C1 cell viability reduction, dose response, CellTiter-Glo luminescence (AID 1117323). It is filed as functional, cell-based.
Experiment [26] in a line: cytotoxicity toward Colo320 cells – cell-based, CellTiter-Glo luminescence, IC50, dose response (AID 1117334). Particulars: COLO 320. It is filed as functional.
Experiment [27] in a line: RKO cell viability reduction, dose response, CellTiter-Glo luminescence (AID 1117322). It is filed as functional.

Chain of 1-phosphatidylinositol 4,5-bisphosphate phosphodiesterase gamma-1 (P19174 whole entry): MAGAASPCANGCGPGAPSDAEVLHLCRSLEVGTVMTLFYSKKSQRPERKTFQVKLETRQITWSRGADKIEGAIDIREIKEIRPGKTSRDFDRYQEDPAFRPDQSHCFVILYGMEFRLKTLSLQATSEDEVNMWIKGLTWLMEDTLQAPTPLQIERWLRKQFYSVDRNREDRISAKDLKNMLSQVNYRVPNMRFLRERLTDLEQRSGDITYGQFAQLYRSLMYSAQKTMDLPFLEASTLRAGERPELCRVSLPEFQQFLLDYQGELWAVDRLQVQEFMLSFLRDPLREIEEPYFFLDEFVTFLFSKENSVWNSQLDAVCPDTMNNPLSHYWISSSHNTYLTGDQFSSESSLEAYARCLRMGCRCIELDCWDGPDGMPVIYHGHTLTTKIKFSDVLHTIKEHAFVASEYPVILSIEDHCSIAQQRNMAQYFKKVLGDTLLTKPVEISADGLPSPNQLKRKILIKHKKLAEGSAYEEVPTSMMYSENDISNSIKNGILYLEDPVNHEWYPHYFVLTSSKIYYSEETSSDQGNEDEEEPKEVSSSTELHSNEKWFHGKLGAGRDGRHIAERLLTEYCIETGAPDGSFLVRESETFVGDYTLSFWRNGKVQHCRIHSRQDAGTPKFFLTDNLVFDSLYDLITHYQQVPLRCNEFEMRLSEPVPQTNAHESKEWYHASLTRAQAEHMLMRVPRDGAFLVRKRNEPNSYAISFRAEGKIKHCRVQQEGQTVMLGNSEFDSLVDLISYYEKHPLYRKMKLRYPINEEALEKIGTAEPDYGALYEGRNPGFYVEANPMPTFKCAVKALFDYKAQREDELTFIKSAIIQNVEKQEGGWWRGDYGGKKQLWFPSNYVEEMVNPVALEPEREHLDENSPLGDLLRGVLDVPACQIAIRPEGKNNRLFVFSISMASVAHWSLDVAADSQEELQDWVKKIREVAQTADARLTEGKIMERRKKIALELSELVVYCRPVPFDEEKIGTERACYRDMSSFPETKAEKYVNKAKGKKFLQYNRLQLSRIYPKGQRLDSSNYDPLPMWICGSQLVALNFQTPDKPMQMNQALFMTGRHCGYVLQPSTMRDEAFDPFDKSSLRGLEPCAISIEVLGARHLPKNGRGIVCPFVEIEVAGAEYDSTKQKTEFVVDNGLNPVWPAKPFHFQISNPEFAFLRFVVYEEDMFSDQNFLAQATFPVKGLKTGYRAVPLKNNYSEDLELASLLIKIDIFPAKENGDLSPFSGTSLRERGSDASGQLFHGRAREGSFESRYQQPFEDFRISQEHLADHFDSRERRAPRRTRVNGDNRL
Chain of Paired box protein Pax-8 (Q06710 whole entry): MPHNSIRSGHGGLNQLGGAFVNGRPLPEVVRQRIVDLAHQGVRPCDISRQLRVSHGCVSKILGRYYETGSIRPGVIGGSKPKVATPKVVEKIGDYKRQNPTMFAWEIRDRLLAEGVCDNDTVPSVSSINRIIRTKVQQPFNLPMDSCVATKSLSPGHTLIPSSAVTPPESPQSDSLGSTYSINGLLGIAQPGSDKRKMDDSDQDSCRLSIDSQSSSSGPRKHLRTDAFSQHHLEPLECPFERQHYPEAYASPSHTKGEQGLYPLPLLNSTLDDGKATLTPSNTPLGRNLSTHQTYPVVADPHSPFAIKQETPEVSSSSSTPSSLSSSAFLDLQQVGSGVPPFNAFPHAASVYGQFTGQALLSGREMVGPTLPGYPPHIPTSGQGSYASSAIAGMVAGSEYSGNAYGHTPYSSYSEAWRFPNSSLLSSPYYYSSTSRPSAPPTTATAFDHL
Chain of COUP transcription factor 2 (P24468 whole entry): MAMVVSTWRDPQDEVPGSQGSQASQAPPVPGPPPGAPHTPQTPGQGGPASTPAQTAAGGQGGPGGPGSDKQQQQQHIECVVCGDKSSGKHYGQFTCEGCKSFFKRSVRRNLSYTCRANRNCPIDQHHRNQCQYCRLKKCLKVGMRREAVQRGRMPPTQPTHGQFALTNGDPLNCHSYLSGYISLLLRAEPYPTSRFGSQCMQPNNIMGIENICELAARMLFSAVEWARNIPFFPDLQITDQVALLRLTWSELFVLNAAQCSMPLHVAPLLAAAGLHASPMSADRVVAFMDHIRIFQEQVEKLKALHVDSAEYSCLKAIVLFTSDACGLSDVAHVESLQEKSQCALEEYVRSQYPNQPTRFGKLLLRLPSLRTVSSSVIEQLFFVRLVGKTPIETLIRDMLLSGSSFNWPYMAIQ
Chain of Nonstructural protein 1 (Q194T2 whole entry): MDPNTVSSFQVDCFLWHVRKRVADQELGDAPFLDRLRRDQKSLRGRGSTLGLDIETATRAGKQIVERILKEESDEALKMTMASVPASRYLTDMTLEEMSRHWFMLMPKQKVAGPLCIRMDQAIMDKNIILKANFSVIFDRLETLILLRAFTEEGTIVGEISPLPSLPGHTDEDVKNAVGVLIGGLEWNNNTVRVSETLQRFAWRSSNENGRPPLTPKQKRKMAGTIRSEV
Chain of 1-phosphatidylinositol 4,5-bisphosphate phosphodiesterase beta-3 (Q01970 whole entry): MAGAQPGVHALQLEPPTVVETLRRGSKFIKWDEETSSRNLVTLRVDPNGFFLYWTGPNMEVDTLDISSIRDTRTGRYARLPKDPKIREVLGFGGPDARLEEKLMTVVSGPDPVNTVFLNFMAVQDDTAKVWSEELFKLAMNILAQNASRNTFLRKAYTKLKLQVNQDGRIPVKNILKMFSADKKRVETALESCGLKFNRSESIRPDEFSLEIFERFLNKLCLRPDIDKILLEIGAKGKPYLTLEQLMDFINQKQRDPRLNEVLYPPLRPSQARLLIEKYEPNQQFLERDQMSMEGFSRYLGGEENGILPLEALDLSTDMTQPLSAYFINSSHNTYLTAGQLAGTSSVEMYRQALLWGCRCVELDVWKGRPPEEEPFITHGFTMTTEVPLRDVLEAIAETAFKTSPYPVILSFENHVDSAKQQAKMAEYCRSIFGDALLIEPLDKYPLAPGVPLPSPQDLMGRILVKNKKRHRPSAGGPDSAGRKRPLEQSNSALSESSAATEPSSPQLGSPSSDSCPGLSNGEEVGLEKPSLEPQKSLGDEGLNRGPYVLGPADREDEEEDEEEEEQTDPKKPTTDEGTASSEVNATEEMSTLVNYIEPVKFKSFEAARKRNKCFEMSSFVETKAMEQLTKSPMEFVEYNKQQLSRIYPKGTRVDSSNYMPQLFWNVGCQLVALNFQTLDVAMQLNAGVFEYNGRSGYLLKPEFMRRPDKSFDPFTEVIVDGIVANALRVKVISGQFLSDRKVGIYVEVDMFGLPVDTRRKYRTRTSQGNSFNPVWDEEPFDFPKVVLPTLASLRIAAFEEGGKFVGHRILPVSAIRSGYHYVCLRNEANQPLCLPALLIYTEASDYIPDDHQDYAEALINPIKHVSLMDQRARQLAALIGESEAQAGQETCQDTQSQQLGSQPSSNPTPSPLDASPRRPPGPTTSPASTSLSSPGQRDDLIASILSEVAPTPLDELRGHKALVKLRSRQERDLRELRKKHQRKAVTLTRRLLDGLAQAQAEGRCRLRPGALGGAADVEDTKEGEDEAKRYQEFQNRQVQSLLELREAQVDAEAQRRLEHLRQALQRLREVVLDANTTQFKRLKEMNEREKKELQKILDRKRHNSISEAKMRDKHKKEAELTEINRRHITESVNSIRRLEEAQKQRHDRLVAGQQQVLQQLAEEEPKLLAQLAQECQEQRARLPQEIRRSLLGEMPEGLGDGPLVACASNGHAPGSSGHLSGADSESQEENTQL
Chain of Kallikrein-7 (P49862 whole entry): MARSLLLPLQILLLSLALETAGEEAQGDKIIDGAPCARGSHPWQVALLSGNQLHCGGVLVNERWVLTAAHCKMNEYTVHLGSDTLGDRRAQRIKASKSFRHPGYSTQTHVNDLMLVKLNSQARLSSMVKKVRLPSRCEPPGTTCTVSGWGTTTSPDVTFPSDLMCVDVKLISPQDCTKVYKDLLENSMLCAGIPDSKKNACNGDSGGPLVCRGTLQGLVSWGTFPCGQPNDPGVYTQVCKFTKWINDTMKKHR

In general, EC50 refers to the concentration that produces a half-maximal response. On to `Cc1ccc2nc(NC(=O)c3ccc4ncsc4c3)sc2c1`, for which, in experiment [1], the EC50 is 20.8 µM (inactive).

What is called IC50 is the midpoint of a concentration-inhibition curve. Regarding `CC1=C(C(=O)OCc2ccc([N+](=O)[O-])cc2)N2C(=O)C(NC(=O)Cc3ccccc3)C2SC1` (centres undefined), the IC50 in [2] is 30.8 µM (inactive); in experiment [3], > 122 µM (inactive).

In general, AC50 refers to the concentration giving half of the maximal activity seen. As a reminder, the CC50 is the concentration at which the toxic effect on the cells reaches its halfway point. With `CN(C)c1ccc(C=c2c3ccccc3n3c2c2c([n+]3C)CCCC2)cc1`, the IC50 in experiment [4] was 71.1 µM (inactive); in experiment [5], 38.3 µM (active); in [6], > 80 µM (inactive); in experiment [7] it was 11 µM (active); in experiment [10] it was 1.31 µM (active). The AC50 in experiment [8] was 7.63 µM (active); in [12] it was 0.914 µM (active). Moreover, the CC50 in [9] was 16.9 µM (active). Besides, in [11], the EC50 was > 29.9 µM (inactive).

Turning to `COc1ccc(CNC(=O)c2cccc3c(-c4cccnc4)coc23)cc1OC`, the IC50 in experiment [13] is 1.47 µM (active); in [10], 0.126 µM (active). The AC50 in experiment [14] was 2.29 µM (active); in experiment [15], 1.66 µM (active); in experiment [16] it was 0.9 µM (active). Moreover, the EC50 in experiment [11] was > 29.9 µM (inactive).

In the case of `COc1ccc(S(=O)(=O)Nc2ccc3c(c2)C(=O)N([C@H](C)CO)C[C@H](C)[C@H](CN(C)Cc2ccc(C(F)(F)F)cc2)OCCCC[C@H](C)O3)cc1`, the AC50 in experiment [17] is 9.51 µM (active); in [18], 22.9 µM (active); in experiment [19], 50.7 µM (active); in [20], 31.6 µM (active).

Take `O=C(O)c1ccccc1OP(=O)(O)O` [FOSFOSAL]: the IC50 in experiment [21], in experiment [22], in [23], in experiment [24], in experiment [25] and in [26] was > 20 µM (inactive) throughout. For the same compound, in [27], the IC50 was > 20 µM (inactive).
